Measurements reported in patent US20140243292A1, “SUBSITUTED 2-(CHROMAN-6-YLOXYL)-THIAZOLES AND THEIR USE AS PHARMACEUTICALS” (Sanofi, priority 2011, published 2014).
pIC50: −log10 of the molar value. Structures can show the parent of a compound that is named as a salt.

Target: T1, human NCX1 (Homo sapiens, UniProt P32418)
T1 construct: expressed in transfected cells
Assay: NCX1 inhibition, reverse mode (Ca2+ influx into cells), FLIPR Fluo-4 assay
Assay type: cell-based
Conditions: inhibition of NCX1 in reverse mode (Ca2+ influx into cells); read-out: NCX1rv IC50
Text: The sodium/calcium exchanger NCX1 can transport calcium ions and sodium ions through the cell membrane. The transport is an exchange of Ca^2+ and Na^+ in two directions depending on membrane potential and ion gradients. At the first direction, named “forward mode” or “calcium export mode”, Ca^2+ is transported out of the cell and Na^+ is transported into the cell. At the other direction, named “reverse mode” or “calcium import mode”, the transport directions are vice versa. The effect of the compounds of the invention on NCX1 was determined in CHO cells stably expressing human NCX1 (gene symbol SLC8A1; cf. WO 2009/115238). The assay is based on the monitoring of intracellular Ca^2+ concentrations using a calcium-sensitive fluorescence dye which is detected by means of a FLIPR device (Fluorimetric Imaging Plate Reader, Molecular Devices).
The assay is based on the monitoring of intracellular Ca^2+ concentrations using the calcium-sensitive dye Fluo-4. CHO cells expressing NCX1 were loaded with the dye by means of the acetoxymethyl ester Fluo-4 AM (Invitrogen, F14202), which is cleaved intracellularly by esterase activity to yield the charged species of free Fluo-4. After an preincubation period with the test compound, Gramicidine (Sigma, G5002) was added. Gramicidine is an ionophor for Na^+ ions mediating an increase of intracellular Na^+ ions. Consequently, intracellular Na^+ ions are exchanged against extracellular Ca^2+ ions (Ca^2+ influx, reverse mode). The intracellular elevation of Ca^2+ ions was detected by measuring the fluorescence of Fluo-4 at a wavelength of 520 nm by a FLIPR device.
Briefly, for the reverse mode transport assay 18000 cells per well were seeded into a 96 well microplate (Corning COSTAR 3904) and incubated overnight in culture medium (1× Nut Mix F12 (Ham) (Gibco, 21765-029); 10% (v/v) fetal calf serum (PAA Gold, A15-649); 450 μg/ml Geneticin (Gibco, 10131-027)). A total volume of 100 μl medium per well was used. For the preparation of the FLIPR assay, the culture medium was removed from the plates and 100 μl of dye solution (2 μM Fluo-4 AM; 0.02% (v/v) Pluronic F-127 (20%, Invitrogen, P3000MP); 0.1% (v/v) bovine albumin solution (30% (v/v), Sigma, A9205) in assay buffer (133.8 mM NaCl (Sigma, S5886); 4.7 mM KCl (Sigma, P3911); 1.25 mM MgCl2 (Merck, 1.05833.0250); 3.5 mM CaCl2 (Merck, 1.02083.0250); 5 mM glucose (Sigma, G7021); 10 mM Hepes (Sigma, H4034); 0.01% (v/v) Pluronic F-127 (5%, Sigma, P2443); 2.5 mM Probenecid (Maybridge, SB00915EB); pH 7.4)) were added into each well. The plates were incubated in the dark at room temperature for 80 min. After the incubation period, the dye solution was removed and the wells were washed with 100 μl of assay buffer. Then 80 μl of a solution of the test compound in assay buffer in different concentrations were added into the wells. The plates were incubated at 16° C. for 45 min. Meanwhile a 60 μM solution of Gramicidine in assay buffer (4° C.) was prepared and stored in the wells of a 96 well microplate (96 well microplate, polypropylene, U-shape (Greiner Bio-One, 650201)) at 4° C. until measurement was started. The fluorescence monitoring was performed at 240 measuring points with measurement intervals of 2 sec. After the fifth measuring point, 40 μl of the Gramicidine solution were added to each well of the assay plates to give a final Gramicidine concentration of 20 μM. For the determination of the IC50 values the minimal fluorescence value was subtracted from the maximal fluorescence value for all measuring points. The calculation of the IC50 values via the percentage inhibitions of Ca^2+ influx into cells (reverse mode) effected by the test compound was performed in Biost@t Speed 2.0.

pIC50	Compound
6.70	O=C(NCCc1ccncc1)c1cnc(Oc2ccc3c(c2)CCC(c2ccccc2)O3)s1 (stereo not drawn) [compound 61, hydrochloride]
6.52	Cc1c(CNC(=O)c2cnc(Oc3ccc4c(c3)CC[C@@H](c3ccccc3)O4)s2)cnn1C [compound 62]
6.22	Cc1c(CNC(=O)c2cnc(Oc3ccc4c(c3)CC[C@H](c3ccccc3)O4)s2)cnn1C [compound 63]
5.89	Cc1ccc(C(=O)NCc2cnc(Oc3ccc4c(c3)CCC(c3ccccc3)O4)s2)cn1 (stereo not drawn) [compound 64]
6.70	Cc1noc(C)c1C(=O)NCc1cnc(Oc2ccc3c(c2)CCC(c2ccccc2)O3)s1 (stereo not drawn) [compound 65]
6.22	Cc1cc(C(=O)NCc2cnc(Oc3ccc4c(c3)CCC(c3ccccc3)O4)s2)n(C)n1 (stereo not drawn) [compound 66]
6.52	Cc1nn(C)c(C)c1C(=O)NCc1cnc(Oc2ccc3c(c2)CCC(c2ccccc2)O3)s1 (stereo not drawn) [compound 67]
6.10	O=C(NCc1cnc(Oc2ccc3c(c2)CCC(c2ccccc2)O3)s1)c1ccnc(Cl)c1 (stereo not drawn) [compound 68]
6.30	Cc1ncoc1C(=O)NCc1cnc(Oc2ccc3c(c2)CCC(c2ccccc2)O3)s1 (stereo not drawn) [compound 69]
6.52	CCn1nccc1C(=O)NCc1cnc(Oc2ccc3c(c2)CCC(c2ccccc2)O3)s1 (stereo not drawn) [compound 70]
6.15	Cc1c(C(=O)NCc2cnc(Oc3ccc4c(c3)CCC(c3ccccc3)O4)s2)cnn1C (stereo not drawn) [compound 71]
6.52	CCn1cc(C(=O)NCc2cnc(Oc3ccc4c(c3)CCC(c3ccccc3)O4)s2)cn1 (stereo not drawn) [compound 72]
6.52	Cc1nc(C(=O)NCc2cnc(Oc3ccc4c(c3)CCC(c3ccccc3)O4)s2)cs1 (stereo not drawn) [compound 73]
6.52	Cc1ccn(CC(=O)NCc2cnc(Oc3ccc4c(c3)CCC(c3ccccc3)O4)s2)n1 (stereo not drawn) [compound 74]
5.01	O=C(NCc1cnc(Oc2ccc3c(c2)CCC(c2ccccc2)O3)s1)c1ccnc(N2CCCCC2)c1 (stereo not drawn) [compound 75]
5.25	COc1cc(C(=O)NCc2cnc(Oc3ccc4c(c3)CCC(c3ccccc3)O4)s2)ccn1 (stereo not drawn) [compound 76]
6.40	Cc1noc(C)c1CC(=O)NCc1cnc(Oc2ccc3c(c2)CCC(c2ccccc2)O3)s1 (stereo not drawn) [compound 77]
6.52	Cc1nc(C)c(C(=O)NCc2cnc(Oc3ccc4c(c3)CCC(c3ccccc3)O4)s2)o1 (stereo not drawn) [compound 78]
6.70	O=C(NCc1cnc(Oc2ccc3c(c2)CCC(c2ccccc2)O3)s1)c1ccncc1 (stereo not drawn) [compound 79]
6.70	O=C(NCc1cnc(Oc2ccc3c(c2)CCC(c2ccccc2)O3)s1)c1ccncc1Cl (stereo not drawn) [compound 80]

pIC50	Compound
5.96	O=C(NCc1cnc(Oc2ccc3c(c2)CCC(c2ccccc2)O3)s1)c1ccncc1F (stereo not drawn) [compound 81]
6.40	Cc1cc(C(=O)NCc2cnc(Oc3ccc4c(c3)CCC(c3ccccc3)O4)s2)ccn1 (stereo not drawn) [compound 82]
5.68	O=C(NCc1cnc(Oc2ccc3c(c2)CCC(c2ccccc2)O3)s1)c1ccnc(N2CCOCC2)c1 (stereo not drawn) [compound 83]
6.52	Cc1cc(C(=O)NCc2cnc(Oc3ccc4c(c3)CCC(c3ccccc3)O4)s2)on1 (stereo not drawn) [compound 84]
4.96	Nc1cc(C(=O)NCc2cnc(Oc3ccc4c(c3)CCC(c3ccccc3)O4)s2)ccn1 (stereo not drawn) [compound 85]
6.52	Cn1nccc1C(=O)NCc1cnc(Oc2ccc3c(c2)CCC(c2ccccc2)O3)s1 (stereo not drawn) [compound 86]
6.40	O=C(NCc1cnc(Oc2ccc3c(c2)CCC(c2ccccc2)O3)s1)c1ncccn1 (stereo not drawn) [compound 87]
5.30	O=C(NCc1cnc(Oc2ccc3c(c2)CCC(c2ccccc2)O3)s1)c1ccnc(O)c1 (stereo not drawn) [compound 88]
6.70	O=C(NCc1cnc(Oc2ccc3c(c2)CCC(c2ccccc2)O3)s1)c1ccncn1 (stereo not drawn) [compound 89]
6.22	O=C(CCn1cccn1)NCc1cnc(Oc2ccc3c(c2)CCC(c2ccccc2)O3)s1 (stereo not drawn) [compound 90]
5.28	Cc1cc(C(=O)NCc2cnc(Oc3ccc4c(c3)CCC(c3ccccc3)O4)s2)nc(C)n1 (stereo not drawn) [compound 91]
5.96	O=C(Cn1cccn1)NCc1cnc(Oc2ccc3c(c2)CCC(c2ccccc2)O3)s1 (stereo not drawn) [compound 92]
6.30	CCn1ccc(C(=O)NCc2cnc(Oc3ccc4c(c3)CCC(c3ccccc3)O4)s2)n1 (stereo not drawn) [compound 93]
6.05	Cc1noc(C)c1CCC(=O)NCc1cnc(Oc2ccc3c(c2)CCC(c2ccccc2)O3)s1 (stereo not drawn) [compound 94]
6.22	O=C(CN1C(=O)CNC1=O)NCc1cnc(Oc2ccc3c(c2)CCC(c2ccccc2)O3)s1 (stereo not drawn) [compound 95]
6.10	CC(C)Oc1cccc(C2CCc3cc(Oc4ncc(C(=O)NCc5ccncc5)s4)ccc3O2)c1 (stereo not drawn) [compound 96]
5.92	Cc1noc(C)c1CCNC(=O)c1cnc(Oc2ccc3c(c2)CCC(c2cccc(OC(C)C)c2)O3)s1 (stereo not drawn) [compound 97]
6.52	Cc1nc(Oc2ccc3c(c2)CC[C@@H](c2ccccc2)O3)sc1C(=O)NCc1ccncc1 [compound 98, hydrochloride]
6.15	CCCCN(C)Cc1cnc(Oc2ccc3c(c2)CCC(c2ccccc2)O3)s1 (stereo not drawn) [compound 99]
6.00	C[C@@H]1CN(Cc2cnc(Oc3ccc4c(c3)CCC(c3ccccc3)O4)s2)C[C@H](C)O1 (stereo partly drawn) [compound 100]

pIC50	Compound
6.40	CC(C)CNCc1cnc(Oc2ccc3c(c2)CCC(c2ccccc2)O3)s1 (stereo not drawn) [compound 101]
6.40	CN1CCN(Cc2cnc(Oc3ccc4c(c3)CCC(c3ccccc3)O4)s2)CC1=O (stereo not drawn) [compound 102]
6.40	c1ccc(C2CCc3cc(Oc4ncc(CN5CCCC5)s4)ccc3O2)cc1 (stereo not drawn) [compound 104]
6.10	CC(NCc1cnc(Oc2ccc3c(c2)CCC(c2ccccc2)O3)s1)C(C)(C)C (stereo not drawn) [compound 105]
6.30	CCC(CC)NCc1cnc(Oc2ccc3c(c2)CCC(c2ccccc2)O3)s1 (stereo not drawn) [compound 106]
6.70	FC(F)(F)CNCc1cnc(Oc2ccc3c(c2)CCC(c2ccccc2)O3)s1 (stereo not drawn) [compound 107]
6.15	FC1(F)CCN(Cc2cnc(Oc3ccc4c(c3)CCC(c3ccccc3)O4)s2)CC1 (stereo not drawn) [compound 109]
6.70	c1ccc(C2CCc3cc(Oc4ncc(CNC5CCC5)s4)ccc3O2)cc1 (stereo not drawn) [compound 110]
6.10	Cc1cc(NCc2cnc(Oc3ccc4c(c3)CCC(c3ccccc3)O4)s2)on1 (stereo not drawn) [compound 111]
6.52	CCC(C)(C)NCc1cnc(Oc2ccc3c(c2)CCC(c2ccccc2)O3)s1 (stereo not drawn) [compound 112]
6.52	CC(C)NCc1cnc(Oc2ccc3c(c2)CCC(c2ccccc2)O3)s1 (stereo not drawn) [compound 113]
6.70	COCCNCc1cnc(Oc2ccc3c(c2)CCC(c2ccccc2)O3)s1 (stereo not drawn) [compound 114]
6.22	CC(C)CCNCc1cnc(Oc2ccc3c(c2)CCC(c2ccccc2)O3)s1 (stereo not drawn) [compound 115]
6.70	CCCNCc1cnc(Oc2ccc3c(c2)CCC(c2ccccc2)O3)s1 (stereo not drawn) [compound 116]
6.52	c1ccc(C2CCc3cc(Oc4ncc(CN5CCOCC5)s4)ccc3O2)cc1 (stereo not drawn) [compound 117]
6.40	CC(C)(C)NCc1cnc(Oc2ccc3c(c2)CCC(c2ccccc2)O3)s1 (stereo not drawn) [compound 118]
6.40	CN(C)Cc1cnc(Oc2ccc3c(c2)CCC(c2ccccc2)O3)s1 (stereo not drawn) [compound 119]
6.52	c1ccc(C2CCc3cc(Oc4ncc(CNCC5CC5)s4)ccc3O2)cc1 (stereo not drawn) [compound 120]

Compound	pIC50
c1ccc(C2CCc3cc(Oc4ncc(CN5CC6CCC(CC6)C5)s4)ccc3O2)cc1 (stereo not drawn) [compound 108]	5.85
c1ccc(C2CCc3cc(Oc4ncc(CN5C6CCC5CC6)s4)ccc3O2)cc1 (stereo not drawn) [compound 121]	6.22
